Reference: US20240261204A1, “ASCORBIC ACID POLYPEPTIDE DERIVATIVE, PREPARATION METHOD THEREFOR, AND APPLICATION THEREOF” (HARVEST BIOTECH CO., LTD, priority 2021, published 2024)

What was measured:
B16 mouse melanoma cells = test: Measurement of melanin content in α-MSH-induced B16 cells; type: cell-based; conditions: for melanin inhibition (in words): 24.25 μM (about 10 ppm), inducer 0.1 μg/mL (63 nM) α-MSH
Procedure: (§1) A method for in vitro testing whitening efficacy for B16 mouse melanoma cells was designed according to Association Standard T/SHRH 021-2019 for cosmetics whitening efficacy test, in combination with NCBI and CNKI literature research:
Cell samples having been treated by the inducer (α-MSH) and the to-be-tested substance were placed in a 6-well cell culture plate. 0.5˜2 mL of cell lysate was added. The culture plate was allowed to stand in a 65° C. constant-temperature oven for 2 h. Then, after the lysate was uniformly mixed, the lysate was added to a 96-well assay plate at 150 μL/well. The absorbancy (OD) value was measured at 450 nm wavelength.

tyrosinase = target: T1, tyrosinase (Mus musculus, UniProt P11344); test: Enzyme activity test for tyrosinase in α-MSH-induced B16 cells; type: cell-based; conditions: 24.25 μM/10 ppm; inducer 0.1 μg/mL (63 nM) α-MSH
T1 construct: endogenous in cells; host or cells: B16 mouse melanoma cells
T1 sequence (P11344 19-533): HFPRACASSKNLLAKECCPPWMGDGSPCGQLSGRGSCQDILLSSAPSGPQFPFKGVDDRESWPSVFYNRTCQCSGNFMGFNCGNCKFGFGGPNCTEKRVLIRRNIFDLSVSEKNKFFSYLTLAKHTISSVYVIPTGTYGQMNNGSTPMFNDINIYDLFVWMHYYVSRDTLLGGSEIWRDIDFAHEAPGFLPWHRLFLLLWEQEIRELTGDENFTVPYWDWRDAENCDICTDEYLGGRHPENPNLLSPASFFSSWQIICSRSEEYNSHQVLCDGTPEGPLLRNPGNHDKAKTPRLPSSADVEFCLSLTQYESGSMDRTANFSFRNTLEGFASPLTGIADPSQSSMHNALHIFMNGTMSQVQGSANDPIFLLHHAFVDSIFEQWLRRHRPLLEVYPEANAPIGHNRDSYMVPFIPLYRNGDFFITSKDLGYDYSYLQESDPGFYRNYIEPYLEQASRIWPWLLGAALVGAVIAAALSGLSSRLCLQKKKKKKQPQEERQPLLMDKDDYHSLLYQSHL
Procedure: as §1
Cell samples having been treated by an inducer (α-MSH) and a to-be-tested substance were placed in a 96-well cell culture plate, for repeated freeze-thawing lysis. To each well 100 μL of 0.1˜0.5% levodopa was added, incubation was performed in a 37° C. cell incubator for about 2 h. the absorbancy (OD) value was measured at 450 nm wavelength.

H2O2-induced HaCaT cells = test: Anti-aging repair test for stratum corneum cell under oxidative stress (H2O2); type: cell-based, human; conditions: 24 h sample repair after H2O2 damage
Excerpt: In order to study the anti-aging repair efficacy of the raw material of the present disclosure to stratum corneum cell under oxidative stress, according to Anti-wrinkly and Firming Lifting Efficacy Test of Cosmetics—In vitro Test Method of Reactive Oxygen Species (ROS) Inhibition with keratinocytes (Association Standard T/SHRH 032-2020), oxidative damage cell models were constructed with H2O2-induced HaCaT cells, and relative proliferation rate and ROS expression quantity of the cells were respectively measured.
Washing was performed for 3˜5 times with a serum-free culture medium. 100 μL of serum-free culture medium was added.

Blood cell = conditions: Toxicology in Vitro 13 (1999) 343~354
[1] = tested on: human primary fibroblasts FB; test: Synthesis test of type I collagen of fibroblast; type: cell-based; conditions: 24.25 μM/10 ppm; FB supernatant, ELISA
Procedure: According to Anti-wrinkly and Firming Lifting Efficacy Test of Cosmetics—In vitro Test Method of Collagen I Contents with fibroblasts (Association Standard T/SHRH 032-2020), human primary fibroblasts FB were used to measure influence of each raw material group on collagen secretion of FB at a concentration (24.25 μM/10 ppm).
The plate was placed in a carbon dioxide incubator for incubation for 24 h+2 h. After incubation was finished, 200 μL of cell culture supernatant was collected per well in a 1.5 mL sterile centrifuge tube, and stored frozen in an ultra-low temperature freezer at −80° C.
Human type I collagenase immunization kit was used for ELISA detection. First, a standard was used for detection and a standard curve was plotted, and then a collagen content contained in the fibroblast supernatant diluted at an appropriate ratio was measured.

[2] = tested on: Human immortalized keratinocytes HaCaT; conditions: 24.25 μM; HaCaT cells
Procedure: It was tested whether ATP in HaCaT cells would be affected by EAC-L-carnosine. Human immortalized keratinocytes HaCaT having been treated with the test substance were fully lysed using a certain amount of cell lysate, and centrifuged at 4° C. and 12000 g for 5 min. Supernatant was taken, and cell lysis samples of each experimental group were added to a 96-well assay plate (opaque) at 20 μL/well. ATP detection solution was further added at 100 μL/well. The plate was left to stand at room temperature for 3˜5 min. Self-luminescence intensity was detected using a full-waveband plate reader.

rabbit corneal cell SIRC = test: SIRC corneal cell irritation test (ocular irritation SIRC model); type: cell-based
Procedure: Detection method was rabbit corneal cell SIRC cell viability test. To-be-tested cells were washed 1˜2 times with PBS. 100 μL of MEM complete medium and 10 μL of CCK-8 solution were added to each well, and placed in a carbon dioxide incubator, for incubation of 2˜4 h. The absorbancy (OD) value was measured at 450 nm wavelength. CCK-8 reagent can be replaced with MTT.

[3] = tested on: HFF human foreskin fibroblast; test: Fibroblast anti-aging repair test under UVA photoaging stress; type: cell-based; conditions: about 24 μM/10 ppm; UVA 5 J/cm^2
Procedure: 100 μL of serum-free culture medium was added.
HYP (cell lysate) content detection: a hydroxyproline (HYP) content detection kit was used. First, a HYP standard was used for detection and a standard curve was plotted, and then a HYP […] content contained in the fibroblast lysate diluted at an appropriate ratio was measured.
Type I collagen content detection: human type I collagenase (Col I) immunization kit was used for ELISA detection. First, a type I collagen standard was used for detection and a standard curve was plotted, and then a collagen content contained in the fibroblast supernatant diluted at an appropriate ratio was measured.

Skin [4] = test: Efficacy for actual volunteer population (skin elasticity and skin tone, CK instrument); type: in vivo, human; conditions: 20 ppm in basic cream, whole face; 14th and 28th days
Excerpt: Test population: experimental group of 15 people, placebo group of 15 people (31-54 years old, female).
Method of use: volunteers used the cream once every morning and evening, with 1 g per use, and uniformly applied the cream on the whole face.
Test instrument: CK instrument.
Test method: using cutometer and Colorimeter probes of the CK instrument to respectively perform a skin elasticity test and a skin tone test on a random side cheek of each volunteer, in a constant-temperature and constant-humidity environment, […]

3T3 cell = conditions: GB/T 21769-2008
Skin [5] = conditions: GB17149.2-1997
[6] = tested on: Human immortalized keratinocytes HaCaT; conditions: about 24 μM/10 ppm; UVA 15 J/cm^2
Procedure: The plate was placed under a specific ultraviolet device, and UVA irradiation dose was 15 J/cm^2. After the induction was completed, the drug-containing PBS was removed, and replaced with a culture medium containing the to-be-tested sample, and they were placed in a carbon dioxide incubator.
ROS detection: after 24 h, a certain amount of DCFH-DA working solution was used in replacement. Incubation was performed in the dark for 15˜30 min. Washing was performed for 3˜5 times with serum-free culture medium. 100 μL of serum-free culture medium was added.
Cell viability detection: after 24 h, a serum-free culture medium containing 10% of CCK-8 was used in replacement. After incubation of 2˜4 h in a carbon dioxide incubator, an OD value was detected at 450 nm wavelength.
HaCat with damage induced by a certain dose of UVA was chosen, to construct a keratinocyte UVA damage cell model.

**Q.** Which results are given for `CCOC1=C(O)C(=O)O[C@@H]1[C@@H](O)COC(=O)[C@H](Cc1c[nH]cn1)NC(=O)CCN` [Example 1, 3-O-ethyl ascorbic acid-L-carnosine]?
**A.** melanin inhibition (in words) (B16 mouse melanoma cells; listed as EAC-L-Carnosine): significant effect of inhibiting melanin secretion; melanin inhibition (in words) (B16 mouse melanoma cells; listed as EAC-L-carnosine): significantly improved capability of inhibiting final melanin; down-regulation of melanin secretion (B16 mouse melanoma cells; 24.25 μM, B16 cells, α-MSH inducer): 27.85%; tyrosinase inhibition versus EAC, L-carnosine and their physical mixture (tyrosinase): better capability of inhibiting tyrosinase; HET-CAM irritation conclusion (chorioallantoic membrane; 10 ppm solution sample): non-irritant; IS (HET-CAM) (chorioallantoic membrane; 10 ppm solution sample, SN/T 2329-2009): 0; Test Conclusion, Ocular irritation HET-CAM model (chorioallantoic membrane; SN329-2009): pass; ROS expression quantity after H2O2 damage (H2O2-induced HaCaT cells): significantly down-regulate the ROS expression quantity; cell activity after H2O2 damage (H2O2-induced HaCaT cells): significantly improve cell activity; Test Conclusion, Blood cell hemolysis test model (Blood cell): pass; collagen I generation versus EAC, dipeptide monomer and their mixture [1]: more significant effect on promoting collagen generation; improvement of ATP expression compared with blank group [2]: 25.0%; SIRC irritation conclusion (rabbit corneal cell SIRC; 10 ppm solution sample): no irritant; CSR (SIRC cell viability) (rabbit corneal cell SIRC; 10 ppm solution sample, SN/T 3084.2-2014): 106.0; Test Conclusion, Ocular irritation SIRC model (rabbit corneal cell SIRC; OECD 491): pass; activity of fibroblasts after UVA irradiation [3]: significantly up-regulating the activity of fibroblasts after UVA irradiation; generation of free radical ROS after UVA, HFF [3]: significantly inhibiting the generation of free radical ROS; hydroxyproline HYP after UVA, HFF [3]: significantly activating collagen precursor hydroxyproline HYP; ITA skin tone of the test group population (Skin [4]): significant trend of elevation; Test Conclusion, Phototoxicity 3T3 cell model (3T3 cell): pass; Test Conclusion, Skin patch test and trial test (Skin [5]): pass; activity of keratinocytes after UVA irradiation [6]: up-regulating the activity of keratinocytes after UVA irradiation; generation of free radical ROS after UVA, HaCaT [6]: significantly inhibiting the generation of free radical ROS; hydroxyproline HYP after UVA, HaCaT [6]: significantly activating collagen precursor hydroxyproline HYP
